Article PMC5478271, “Chemical structure-guided design of dynapyrazoles, cell-permeable dynein inhibitors with a unique mode of action” (eLife, 2017)
Like-named read-outs stand apart in the source and are kept apart here.

Key:
[1] = biological target: T1, human cytoplasmic dynein 1 (GFP-dynein 1, AA 1320–4646) (Homo sapiens, UniProt Q14204); assay: Microtubule gliding (motility) assay with GFP-dynein 1; type: biochemical
T1 construct: (AA 1320–4646 with additional valine [at position 4647], uniprot Q14204); protein A tag (followed by TEV-cleavable linker) (N, cleaved yes); made in house; host or cells: insect cells (baculovirus)
T1 sequence (Q14204 with tags, fused parts or gaps): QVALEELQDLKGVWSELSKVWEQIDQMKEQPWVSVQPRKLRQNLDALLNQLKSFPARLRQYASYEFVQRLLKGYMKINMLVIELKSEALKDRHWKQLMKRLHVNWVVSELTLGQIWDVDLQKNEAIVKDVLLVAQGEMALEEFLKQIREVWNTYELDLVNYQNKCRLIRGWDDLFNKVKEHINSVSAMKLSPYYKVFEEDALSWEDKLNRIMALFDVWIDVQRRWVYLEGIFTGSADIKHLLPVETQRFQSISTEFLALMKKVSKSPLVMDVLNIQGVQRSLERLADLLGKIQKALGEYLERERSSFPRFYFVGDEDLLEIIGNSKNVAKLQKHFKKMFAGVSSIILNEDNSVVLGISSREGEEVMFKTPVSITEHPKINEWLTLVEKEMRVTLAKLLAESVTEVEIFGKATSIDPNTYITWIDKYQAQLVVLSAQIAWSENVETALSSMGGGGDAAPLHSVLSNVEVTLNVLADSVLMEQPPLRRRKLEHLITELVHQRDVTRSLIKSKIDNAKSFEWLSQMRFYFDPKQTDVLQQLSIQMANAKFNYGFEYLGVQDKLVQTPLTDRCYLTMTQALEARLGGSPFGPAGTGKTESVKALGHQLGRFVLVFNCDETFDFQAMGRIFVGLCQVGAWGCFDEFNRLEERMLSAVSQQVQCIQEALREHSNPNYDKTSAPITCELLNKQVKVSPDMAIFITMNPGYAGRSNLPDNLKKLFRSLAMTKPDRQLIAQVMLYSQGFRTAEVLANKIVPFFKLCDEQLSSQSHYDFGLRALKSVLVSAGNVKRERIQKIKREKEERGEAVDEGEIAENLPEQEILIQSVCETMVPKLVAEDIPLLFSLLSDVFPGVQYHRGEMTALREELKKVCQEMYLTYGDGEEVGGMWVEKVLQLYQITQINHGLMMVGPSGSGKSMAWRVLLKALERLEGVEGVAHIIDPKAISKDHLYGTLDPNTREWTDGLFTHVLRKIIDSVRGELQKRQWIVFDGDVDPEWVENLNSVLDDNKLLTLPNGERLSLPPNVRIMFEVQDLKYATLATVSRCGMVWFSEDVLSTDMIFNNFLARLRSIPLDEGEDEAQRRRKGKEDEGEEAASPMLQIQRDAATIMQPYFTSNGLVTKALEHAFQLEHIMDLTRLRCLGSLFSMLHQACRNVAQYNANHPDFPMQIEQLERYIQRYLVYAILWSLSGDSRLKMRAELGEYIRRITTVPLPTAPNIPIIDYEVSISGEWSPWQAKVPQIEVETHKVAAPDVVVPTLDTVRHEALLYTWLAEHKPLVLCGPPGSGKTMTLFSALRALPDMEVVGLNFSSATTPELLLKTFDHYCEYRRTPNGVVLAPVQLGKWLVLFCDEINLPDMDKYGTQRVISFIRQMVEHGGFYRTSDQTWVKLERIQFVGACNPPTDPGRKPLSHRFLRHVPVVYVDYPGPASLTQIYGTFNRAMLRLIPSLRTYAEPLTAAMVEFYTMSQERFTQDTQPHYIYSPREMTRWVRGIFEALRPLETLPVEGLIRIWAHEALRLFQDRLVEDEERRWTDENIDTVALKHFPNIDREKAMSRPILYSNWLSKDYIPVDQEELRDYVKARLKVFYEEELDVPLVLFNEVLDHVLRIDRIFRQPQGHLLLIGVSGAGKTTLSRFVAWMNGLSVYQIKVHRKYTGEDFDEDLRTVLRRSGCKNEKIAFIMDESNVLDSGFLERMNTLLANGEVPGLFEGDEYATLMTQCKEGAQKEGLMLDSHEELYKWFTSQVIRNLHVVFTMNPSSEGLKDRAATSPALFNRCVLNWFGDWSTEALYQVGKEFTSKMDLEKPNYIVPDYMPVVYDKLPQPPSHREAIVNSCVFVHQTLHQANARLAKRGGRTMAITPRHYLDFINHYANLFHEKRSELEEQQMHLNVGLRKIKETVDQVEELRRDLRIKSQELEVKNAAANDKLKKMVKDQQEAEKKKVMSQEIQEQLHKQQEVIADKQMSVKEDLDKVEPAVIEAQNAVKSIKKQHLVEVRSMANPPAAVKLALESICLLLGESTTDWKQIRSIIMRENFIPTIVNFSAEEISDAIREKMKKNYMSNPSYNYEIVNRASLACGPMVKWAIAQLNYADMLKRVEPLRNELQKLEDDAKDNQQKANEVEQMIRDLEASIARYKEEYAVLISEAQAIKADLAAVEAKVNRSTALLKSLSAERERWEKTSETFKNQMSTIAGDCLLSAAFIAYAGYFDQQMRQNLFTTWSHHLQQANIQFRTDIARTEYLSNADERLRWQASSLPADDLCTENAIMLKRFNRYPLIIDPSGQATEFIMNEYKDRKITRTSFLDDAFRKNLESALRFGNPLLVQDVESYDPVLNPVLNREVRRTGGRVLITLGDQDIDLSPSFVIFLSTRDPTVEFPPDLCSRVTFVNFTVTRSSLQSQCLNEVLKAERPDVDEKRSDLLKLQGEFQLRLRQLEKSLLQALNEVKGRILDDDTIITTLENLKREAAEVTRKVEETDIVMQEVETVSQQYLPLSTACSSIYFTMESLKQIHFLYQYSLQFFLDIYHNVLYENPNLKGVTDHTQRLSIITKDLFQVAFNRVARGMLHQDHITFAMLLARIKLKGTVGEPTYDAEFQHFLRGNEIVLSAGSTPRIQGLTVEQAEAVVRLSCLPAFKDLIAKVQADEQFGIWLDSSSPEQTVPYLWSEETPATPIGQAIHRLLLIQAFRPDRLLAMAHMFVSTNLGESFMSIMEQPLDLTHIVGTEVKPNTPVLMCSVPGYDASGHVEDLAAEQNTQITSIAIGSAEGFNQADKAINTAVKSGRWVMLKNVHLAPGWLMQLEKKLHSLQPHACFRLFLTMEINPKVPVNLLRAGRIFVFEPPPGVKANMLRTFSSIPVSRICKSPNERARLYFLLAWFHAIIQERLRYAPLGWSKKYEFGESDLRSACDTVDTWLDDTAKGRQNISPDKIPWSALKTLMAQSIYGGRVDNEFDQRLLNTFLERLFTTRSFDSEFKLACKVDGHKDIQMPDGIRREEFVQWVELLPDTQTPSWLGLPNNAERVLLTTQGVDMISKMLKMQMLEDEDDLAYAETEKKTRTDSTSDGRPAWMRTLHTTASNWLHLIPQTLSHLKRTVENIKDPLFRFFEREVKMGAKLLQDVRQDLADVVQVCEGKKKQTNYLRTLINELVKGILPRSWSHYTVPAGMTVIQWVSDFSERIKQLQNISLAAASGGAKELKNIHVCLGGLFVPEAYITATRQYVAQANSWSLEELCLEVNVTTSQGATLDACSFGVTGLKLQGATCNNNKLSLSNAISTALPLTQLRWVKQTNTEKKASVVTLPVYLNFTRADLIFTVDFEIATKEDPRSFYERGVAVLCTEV
From the text: To examine the inhibition of dynein 1 by dynapyrazole-A in vitro we generated recombinant human protein. We expressed and purified a GFP-tagged human dynein 1 (AA 1320–4646) construct similar to the one we used for GFP-dynein 2. […] GFP-dynein 1 moves microtubules at 508 ± 60 nm/s (n = 5 independent experiments, 191 microtubules analyzed), a velocity expected based on studies of other mammalian dynein 1 homologs ([Yamada et al., 2008]). Under these conditions, ~97% of the filaments analyzed had velocities >50 nm/s (Figure 5—figure supplement 1). […] As has been previously noted for ciliobrevin D, the potency of dynapyrazole-A was sensitive to the protein (e.g. blocking agent, serum) concentration in solution (Figure 5—figure supplement 4), likely due to the hydrophobicity of these compounds (calculated logarithm of octanol:water partition coefficient [ClogP]: ciliobrevin D: 4.5; dynapyrazole-A: 4.2) ([Firestone et al., 2012]).
Reaction setup: A coverslip-based motility assay was adapted from similar assays reported previously ([Firestone et al., 2012]; [Schmidt et al., 2015]). A flow chamber assembled on a pre-cleaned microscope coverslide (3–5 µL chamber volume) was hydrated with buffer A (25 mM PIPES, 30 mM KCl, 5 mM MgCl2, 1 mM EGTA, 0.01% Triton X-100, 1 mM DTT, 20 µM taxol, pH 7.0 with KOH). Anti-GFP antibody (0.4 mg/mL, affinity purified rabbit antibody) was flowed into the chamber and allowed to adhere non-specifically to the glass for 20 s. The surface was blocked using 0.5 mg/mL α-casein in buffer A. Excess protein was then washed away with buffer A. GFP-dynein motor domain was diluted in buffer A supplemented with 1 mM DTT and 0.1 mM ATP (2 mM DTT final; GFP-dynein 2 diluted to: 180 nM; GFP-dynein 1 diluted to: 60 nM), flowed into the chamber and allowed to bind for 20 s. Excess protein was washed away with buffer A. Reaction mix (25 mM PIPES, 90 mM KCl, 6 mM MgCl2, 1 mM EGTA, 0.01% Triton X-100, 3 mM DTT, 20 µM taxol, 1 mM ATP, 1x oxygen scavenging system components [4.5 mg/mL glucose, 35 µg/mL catalase, 200 µg/mL glucose oxidase], 2% final DMSO [v/v] with compounds at appropriate concentrations, 0.05 mg/mL α-casein, microtubules [rhodamine labeled, purified from bovine brain, GMP-CPP and Taxol-stabilized], pH 7.0 with KOH) was flowed into the chamber using ~4 chamber volumes. For experiments shown in Figure 4—figure supplement 1, α-casein concentration in reaction mix was 0.5 mg/mL and all other parameters were held constant.
For reversibility experiments, motility in the presence of 5 µM 8 was observed as above, and upon completion of imaging, the chamber, fresh buffer A supplemented with 1 mM ATP was flowed into the chamber and incubated for 1 min; this wash and incubation cycle was repeated twice. Reaction mix containing DMSO (no compound) was flowed into the chamber using ~4 chamber volumes. The chamber was sealed with valap and returned to the microscope.
Microscopy conditions: Following addition of reaction mix, microtubules were allowed to bind for 5 min before imaging. For reversibility experiments, microtubules were allowed to bind for 10 min before imaging. […] Velocities were measured using the kymograph tool in FIJI ([Schindelin et al., 2012]). […]
Microtubule velocity measurements: the tracks of microtubules were traced and converted to kymographs (x axis-displacement, y axis-time) using the kymograph function of FIJI (RRID: SCR_002285). The angle formed between an edge of a microtubule and the horizontal was measured. […]

IMCD3 cells = assay: Cellular ATP content (CellTiter-Glo cytotoxicity assay); type: cell-based, murine
Procedure: Murine inner medullary collecting duct (IMCD3) cells stably expressing mNeonGreen-IFT88 (described previously [[Ye et al., 2013]]) were maintained in DMEM/F12 supplemented with 10% FBS. Cell line identity was confirmed by the proper localization and motility of mNeonGreen IFT88 puncta, in reference to published analyses from our groups and from the work of others ([Ye et al., 2013]; [Yang et al., 2015]). Cells were seeded in a 96-well plate at a density of 5 × 10^3 cells/well. Following overnight incubation, low-serum media (0.2% FBS) containing solvent control (0.3% DMSO) or compound. At fixed time points, CellTiter-Glo 2.0 (Promega) reagent was added to the wells, mixed by pipetting, and transferred to a white, opaque 96-well plate. After a 10 min incubation, luminescence for each condition was read using a Synergy Neo plate reader (1 s integration time per well).

[2] = 1 mM MgATP, 0.05 mg/mL casein, 2% DMSO, read-out: IC50, inhibition of GFP-dynein 1-driven motility

SMILES	Reversibility of inhibition of dynein-1-dependent microtubule gliding after washout ([1]; 5 µM 8, then washout, 1 mM ATP, 0.05 mg/mL casein)	IC50 ([1]; 1 mM ATP, 0.5 mg/mL casein, read-out: IC50, inhibition of GFP-dynein 1-driven motility in the presence of 0.5 mg/ml casein) [µM]	IC50 [1, 2] [µM]	Potency relative to ciliobrevin D, GFP-dynein-1-driven motility ([1]; more potent than ciliobrevin D)	ATP levels in cells (IMCD3 cells; 5 µM, low-serum or serum-free media)	Lowering of intracellular ATP levels (IMCD3 cells; 15 µM, at 3 hr)
N#Cc1c(C2(c3ccc(Cl)cc3)CC2)nn2c1[nH]c(=O)c1cc(I)ccc12 [Compound 8, 2-[1-(4-chlorophenyl)cyclopropyl]-7-iodo-5-oxo-4H-pyrazolo[1,5-a]quinazoline-3-carbonitrile]	reversed following washout	10.5 ± 4.6	2.3 ± 1.4	~ 6 fold	stable for up to 3 hr	~ 70%
N#C/C(C(=O)c1ccc(Cl)cc1Cl)=C1\NC(=O)c2ccc(Cl)cc2N1 [ciliobrevin D, reference compound]	–	–	15 ± 2.9	–	–	–
